# Data: ChEMBL document CHEMBL6177990, “Fluorescence-Coupled Ubiquitination Assay as a High-Throughput Screening Strategy for Novel Cereblon Degraders” (J Med Chem, 2025)
# Active and inactive are the calls of the source. The rule behind the calls is not given here.
# Tests used:
# [1] = biological target: T1, Protein cereblon/Chromatin remodeling regulator CECR2 (Homo sapiens) (UniProt Q9BXF3+Q96SW2); test: PROTAC activity at human CECR2/CRBN assessed as degradation of protein by measuring unmodified protein at 10 uM by fluorescence-coupled CRBN-based ubiquitination assay
# T1 sequence (Q96SW2 whole entry, looked up): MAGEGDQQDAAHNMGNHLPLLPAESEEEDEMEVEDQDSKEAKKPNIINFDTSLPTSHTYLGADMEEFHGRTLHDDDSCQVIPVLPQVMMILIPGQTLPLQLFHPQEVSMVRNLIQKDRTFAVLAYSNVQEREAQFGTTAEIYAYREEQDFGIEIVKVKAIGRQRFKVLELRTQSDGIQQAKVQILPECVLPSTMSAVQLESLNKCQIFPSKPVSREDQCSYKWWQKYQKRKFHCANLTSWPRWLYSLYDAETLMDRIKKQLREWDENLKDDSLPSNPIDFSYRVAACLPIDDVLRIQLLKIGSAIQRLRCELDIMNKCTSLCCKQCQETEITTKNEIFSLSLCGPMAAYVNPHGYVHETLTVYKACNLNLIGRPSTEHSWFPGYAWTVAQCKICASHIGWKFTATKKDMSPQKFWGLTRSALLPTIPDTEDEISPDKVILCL
# T1 sequence (Q9BXF3 whole entry, looked up): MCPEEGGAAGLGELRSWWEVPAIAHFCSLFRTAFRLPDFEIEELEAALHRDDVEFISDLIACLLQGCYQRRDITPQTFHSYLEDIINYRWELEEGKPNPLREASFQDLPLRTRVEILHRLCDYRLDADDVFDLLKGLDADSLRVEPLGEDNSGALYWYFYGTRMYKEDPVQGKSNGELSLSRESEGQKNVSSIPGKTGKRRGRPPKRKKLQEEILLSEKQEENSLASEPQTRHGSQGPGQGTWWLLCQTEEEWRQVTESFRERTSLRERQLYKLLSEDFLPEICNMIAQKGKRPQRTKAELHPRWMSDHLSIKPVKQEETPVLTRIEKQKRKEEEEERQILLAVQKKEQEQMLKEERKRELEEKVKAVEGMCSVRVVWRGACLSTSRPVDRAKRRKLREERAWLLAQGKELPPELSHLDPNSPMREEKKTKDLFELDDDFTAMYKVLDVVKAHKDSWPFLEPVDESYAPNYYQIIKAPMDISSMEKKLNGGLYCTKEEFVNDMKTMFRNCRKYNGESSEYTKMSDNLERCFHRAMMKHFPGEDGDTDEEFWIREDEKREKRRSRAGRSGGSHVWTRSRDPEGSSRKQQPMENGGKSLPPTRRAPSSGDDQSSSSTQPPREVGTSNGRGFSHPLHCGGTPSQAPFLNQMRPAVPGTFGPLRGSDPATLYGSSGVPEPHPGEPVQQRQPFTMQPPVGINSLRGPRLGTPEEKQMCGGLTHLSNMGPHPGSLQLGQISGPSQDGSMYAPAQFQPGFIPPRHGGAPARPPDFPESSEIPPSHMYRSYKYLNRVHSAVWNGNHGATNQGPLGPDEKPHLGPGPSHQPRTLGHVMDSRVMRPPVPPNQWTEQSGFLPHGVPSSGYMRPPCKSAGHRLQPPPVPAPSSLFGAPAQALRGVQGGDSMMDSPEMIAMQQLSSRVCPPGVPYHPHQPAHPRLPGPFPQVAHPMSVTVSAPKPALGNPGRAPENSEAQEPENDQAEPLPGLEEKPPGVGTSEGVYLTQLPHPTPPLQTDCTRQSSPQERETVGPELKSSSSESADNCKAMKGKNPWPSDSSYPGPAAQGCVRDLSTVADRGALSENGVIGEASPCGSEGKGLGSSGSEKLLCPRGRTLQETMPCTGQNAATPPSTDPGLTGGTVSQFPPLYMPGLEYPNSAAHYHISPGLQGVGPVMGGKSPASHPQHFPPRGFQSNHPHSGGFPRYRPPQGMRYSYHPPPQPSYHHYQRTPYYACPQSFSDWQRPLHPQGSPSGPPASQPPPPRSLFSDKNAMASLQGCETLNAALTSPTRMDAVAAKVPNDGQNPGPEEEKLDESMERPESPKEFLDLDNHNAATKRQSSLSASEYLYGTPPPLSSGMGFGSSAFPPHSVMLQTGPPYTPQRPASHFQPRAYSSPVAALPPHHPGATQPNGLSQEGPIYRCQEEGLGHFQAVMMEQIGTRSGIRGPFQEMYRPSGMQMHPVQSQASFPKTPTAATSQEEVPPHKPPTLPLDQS
# [2] = PROTAC activity at human BRD4 BD1/CRBN assessed as ubiquitination level by measuring unmodified protein by […]
# [3] = biological target: T2, Protein cereblon/Nucleosome-remodeling factor subunit BPTF (Homo sapiens, UniProt Q12830+Q96SW2); test: PROTAC activity at human BPTF/CRBN assessed as ubiquitination level by measuring unmodified protein by fluorescence-coupled CRBN-based ubiquitination assay
# Target sequence in this assay (Q96SW2 whole entry, looked up, other chains not shown): as the sequence (Q96SW2 whole entry, looked up) above
# [4] = biological target: T1, Protein cereblon/Chromatin remodeling regulator CECR2 (Homo sapiens); test: PROTAC activity at human CECR2/CRBN assessed as degradation of protein by measuring unmodified protein at 20 uM by fluorescence-coupled CRBN-based ubiquitination assay
# [5] = biological target: T2, Protein cereblon/Nucleosome-remodeling factor subunit BPTF; test: PROTAC activity at human BPTF/CRBN in human MV4-11 cells assessed as degradation of protein at 5 uM measured after 24 hrs by immunoblotting analysis; type: cell-based
# Target sequence in this assay (Q96SW2 whole entry, looked up, other chains not shown): as the sequence (Q96SW2 whole entry, looked up) above
# [6] = Inhibition of human BPTF BRD by HTRF assay
# [7] = biological target: T2, Protein cereblon/Nucleosome-remodeling factor subunit BPTF; test: PROTAC activity at human BPTF/CRBN in human MV4-11 cells assessed as degradation of protein pretreated with MLN4924 for 12hrs followed by measured after 24 hrs of compound treatment by immunoblotting analysis; type: cell-based
# Target sequence in this assay (Q96SW2 whole entry, looked up, other chains not shown): as the sequence (Q96SW2 whole entry, looked up) above
# [8] = biological target: Protein cereblon/Histone acetyltransferase KAT2B (Homo sapiens) (UniProt Q92831+Q96SW2); test: PROTAC activity at human PCAF/CRBN in human MV4-11 cells assessed as degradation of protein at 20 uM measured after 24 hrs by immunoblotting analysis; type: cell-based
# Protein cereblon/Histone acetyltransferase KAT2B (Homo sapiens), sequence (Q92831 whole entry, looked up): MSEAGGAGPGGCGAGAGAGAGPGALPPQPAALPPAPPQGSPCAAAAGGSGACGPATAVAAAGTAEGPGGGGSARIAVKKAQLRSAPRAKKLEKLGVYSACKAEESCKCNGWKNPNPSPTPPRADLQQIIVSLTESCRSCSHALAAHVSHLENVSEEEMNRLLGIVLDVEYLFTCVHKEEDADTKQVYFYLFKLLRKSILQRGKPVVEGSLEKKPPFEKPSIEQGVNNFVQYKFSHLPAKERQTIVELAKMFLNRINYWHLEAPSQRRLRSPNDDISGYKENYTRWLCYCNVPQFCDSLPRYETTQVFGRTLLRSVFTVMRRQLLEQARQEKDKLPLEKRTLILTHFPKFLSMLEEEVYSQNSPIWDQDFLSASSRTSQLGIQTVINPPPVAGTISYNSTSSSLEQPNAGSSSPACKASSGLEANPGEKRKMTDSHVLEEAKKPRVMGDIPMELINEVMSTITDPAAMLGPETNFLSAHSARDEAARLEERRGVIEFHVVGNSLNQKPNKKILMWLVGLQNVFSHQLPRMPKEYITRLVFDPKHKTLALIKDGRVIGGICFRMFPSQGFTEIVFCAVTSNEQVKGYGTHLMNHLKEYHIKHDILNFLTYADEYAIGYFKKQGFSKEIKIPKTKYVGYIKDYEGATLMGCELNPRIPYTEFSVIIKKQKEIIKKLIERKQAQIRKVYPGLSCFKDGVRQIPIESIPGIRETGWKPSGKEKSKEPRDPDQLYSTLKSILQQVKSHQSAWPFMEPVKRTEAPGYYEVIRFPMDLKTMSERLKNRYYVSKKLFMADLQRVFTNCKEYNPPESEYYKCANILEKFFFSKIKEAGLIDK
# Protein cereblon/Histone acetyltransferase KAT2B (Homo sapiens), sequence (Q96SW2 whole entry, looked up): as the sequence (Q96SW2 whole entry, looked up) above
# [9] = biological target: T2, Protein cereblon/Nucleosome-remodeling factor subunit BPTF; test: PROTAC activity at human BPTF/CRBN assessed as ubiquitination level by measuring unmodified protein in presence of pomalidomide by fluorescence-coupled CRBN-based ubiquitination assay
# Target sequence in this assay (Q96SW2 whole entry, looked up, other chains not shown): as the sequence (Q96SW2 whole entry, looked up) above
# [10] = biological target: Protein cereblon/Bromodomain-containing protein 9 (Homo sapiens) (UniProt Q9H8M2+Q96SW2); test: PROTAC activity at human BRD9/CRBN in human MV4-11 cells assessed as degradation of protein at 20 uM measured after 24 hrs by immunoblotting analysis; type: cell-based
# Protein cereblon/Bromodomain-containing protein 9 (Homo sapiens), sequence (Q96SW2 whole entry, looked up): as above
# Protein cereblon/Bromodomain-containing protein 9 (Homo sapiens), sequence (Q9H8M2 whole entry, looked up): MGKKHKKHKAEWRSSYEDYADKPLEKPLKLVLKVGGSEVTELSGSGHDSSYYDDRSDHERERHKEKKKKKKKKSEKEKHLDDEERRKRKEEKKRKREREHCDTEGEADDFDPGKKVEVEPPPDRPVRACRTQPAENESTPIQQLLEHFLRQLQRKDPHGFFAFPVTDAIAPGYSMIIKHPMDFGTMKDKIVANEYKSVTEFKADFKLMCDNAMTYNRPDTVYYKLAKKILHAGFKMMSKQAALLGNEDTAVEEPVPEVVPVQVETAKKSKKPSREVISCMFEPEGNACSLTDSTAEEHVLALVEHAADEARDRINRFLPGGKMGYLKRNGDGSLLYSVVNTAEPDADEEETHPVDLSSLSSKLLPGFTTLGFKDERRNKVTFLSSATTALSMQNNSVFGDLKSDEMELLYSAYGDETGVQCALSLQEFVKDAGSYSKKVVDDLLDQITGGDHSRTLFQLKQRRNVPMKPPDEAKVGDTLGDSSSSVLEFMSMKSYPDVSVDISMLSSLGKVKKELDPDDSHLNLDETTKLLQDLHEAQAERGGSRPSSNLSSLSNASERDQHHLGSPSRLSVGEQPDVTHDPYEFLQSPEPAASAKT
# [11] = biological target: T2, Protein cereblon/Nucleosome-remodeling factor subunit BPTF; test: PROTAC activity at human BPTF/CRBN assessed as degradation of protein by measuring unmodified protein by fluorescence-coupled CRBN-based ubiquitination assay
# Target sequence in this assay (Q96SW2 whole entry, other chains not shown): as the sequence (Q96SW2 whole entry, looked up) above
# [12] = biological target: T2, Protein cereblon/Nucleosome-remodeling factor subunit BPTF; test: PROTAC activity at human BPTF/CRBN in human MV4-11 cells assessed as degradation of protein measured after 24 hrs by immunoblotting analysis; type: cell-based
# Target sequence in this assay (Q96SW2 whole entry, looked up, other chains not shown): as the sequence (Q96SW2 whole entry, looked up) above
# [13] = biological target: T2, Protein cereblon/Nucleosome-remodeling factor subunit BPTF; test: PROTAC activity at human BPTF/CRBN in human MV4-11 cells assessed as degradation of protein measured after 24 hrs in presence of pomalidomide by immunoblotting analysis; type: cell-based
# Target sequence in this assay (Q96SW2 whole entry, looked up, other chains not shown): as the sequence (Q96SW2 whole entry, looked up) above
# [14] = biological target: T1, Protein cereblon/Chromatin remodeling regulator CECR2 (Homo sapiens); test: PROTAC activity at human CECR2/CRBN in human MV4-11 cells assessed as degradation of protein at 20 uM measured after 24 hrs by immunoblotting analysis; type: cell-based
# [15] = Binding affinity to human BPTF BRD assessed as dissociation constant
# MV4-11 = test: Antiproliferative activity against human MV4-11 cells assessed as cell viability measured after 6 days by CellTiter-Glo kit; type: functional, cell-based; conditions: MV4-11, 144 h
structure (smiles),measurement,setting,value
CCCNc1cc(-c2ccc(OCCCN3CCN(C(=O)CCCCCOc4cccc5c4C(=O)N(C4CCC(=O)NC4=O)C5=O)CC3)c(C#N)c2)nc(S(C)(=O)=O)n1 (stereo unspecified),Activity,[1],inactive
COC(=O)C[C@@H]1N=C(c2ccc(Cl)cc2)c2c(sc(C(=O)NCCCCCCCCNC(=O)COc3cccc4c3C(=O)N(C3CCC(=O)NC3=O)C4=O)c2C)-n2c(C)nnc21 (stereo partly specified),IC50,[2],1150 nM
CCCNc1cc(-c2ccc(OCCCN3CCN(C(=O)CCCCNc4cccc5c4C(=O)N(C4CCC(=O)NC4=O)C5=O)CC3)c(C#N)c2)nc(S(C)(=O)=O)n1 (stereo unspecified),Activity,[1],inactive
CCCNc1cc(-c2ccc(OCCCN3CCN(C(=O)C4CCN(c5cccc6c5C(=O)N(C5CCC(=O)NC5=O)C6=O)CC4)CC3)c(C#N)c2)nc(S(C)(=O)=O)n1 (stereo unspecified),Activity,[3],Active
same,Activity,[4],Active
CCCNc1cc(-c2ccc(OCCCN3CCN(C(=O)COc4cccc5c4C(=O)N(C4CCC(=O)N(C)C4=O)C5=O)CC3)c(C#N)c2)nc(S(C)(=O)=O)n1 (stereo unspecified),Activity,[3],inactive
same,Activity,[5],inactive
CCCNc1cc(-c2ccc(OCCCN3CCN(C(=O)COc4cccc5c4C(=O)N(C4CCC(=O)NC4=O)C5=O)CC3)c(C#N)c2)nc(S(C)(=O)=O)n1 (stereo unspecified),IC50,[6],150 nM
same,Activity,[3],Active
same,Activity,[7],inactive
same,Activity,[8],inactive
same,Activity,[9],inactive
same,Activity,[10],inactive
same,DC50,[11],35.1 nM
same,Activity,[4],inactive
same,Activity,[12],Dose-dependent-effect
same,Activity,[13],inactive
same,Activity,[14],inactive
same,Kd,[15],310 nM
same,IC50,MV4-11,2710 nM
same,IC50,[2],680 nM
Cc1sc2c(c1C)C(c1ccc(Cl)cc1)=N[C@@H](CC(=O)NCCNc1cccc3c1C(=O)N(C1CCC(=O)NC1=O)C3=O)c1nnc(C)n1-2 (stereo partly specified),IC50,[2],280 nM
CCCNc1cc(-c2ccc(OCCCN3CCN(C(=O)C4CN(c5cccc6c5C(=O)N(C5CCC(=O)NC5=O)C6=O)C4)CC3)c(C#N)c2)nc(S(C)(=O)=O)n1 (stereo unspecified),Activity,[3],Active
same,DC50,[11],44.6 nM
same,Activity,[4],inactive
Cc1sc2c(c1C)C(c1ccc(Cl)cc1)=N[C@@H](CC(=O)Nc1ccc(OCCOCCOCCOCCNc3cccc4c3C(=O)N(C3CCC(=O)NC3=O)C4=O)cc1)c1nnc(C)n1-2 (stereo partly specified),IC50,[2],1250 nM
